Measured values: ChEMBL document CHEMBL3638950, “Imidazo[5,1-f][1,2,4]triazines for the treatment of neurological disorders” (2013)

Target: cGMP-dependent 3',5'-cyclic phosphodiesterase (Homo sapiens, UniProt O00408)
Assay: Inhibition Assay: The activity of the test substances on human full-length PDE2A3 enzyme was determined using the [3H]-cGMP scintillation proximity assay (SPA) modified from the Amersham TRKQ7100 instructions (GE Healthcare, USA).

Chain of cGMP-dependent 3',5'-cyclic phosphodiesterase (O00408 whole entry): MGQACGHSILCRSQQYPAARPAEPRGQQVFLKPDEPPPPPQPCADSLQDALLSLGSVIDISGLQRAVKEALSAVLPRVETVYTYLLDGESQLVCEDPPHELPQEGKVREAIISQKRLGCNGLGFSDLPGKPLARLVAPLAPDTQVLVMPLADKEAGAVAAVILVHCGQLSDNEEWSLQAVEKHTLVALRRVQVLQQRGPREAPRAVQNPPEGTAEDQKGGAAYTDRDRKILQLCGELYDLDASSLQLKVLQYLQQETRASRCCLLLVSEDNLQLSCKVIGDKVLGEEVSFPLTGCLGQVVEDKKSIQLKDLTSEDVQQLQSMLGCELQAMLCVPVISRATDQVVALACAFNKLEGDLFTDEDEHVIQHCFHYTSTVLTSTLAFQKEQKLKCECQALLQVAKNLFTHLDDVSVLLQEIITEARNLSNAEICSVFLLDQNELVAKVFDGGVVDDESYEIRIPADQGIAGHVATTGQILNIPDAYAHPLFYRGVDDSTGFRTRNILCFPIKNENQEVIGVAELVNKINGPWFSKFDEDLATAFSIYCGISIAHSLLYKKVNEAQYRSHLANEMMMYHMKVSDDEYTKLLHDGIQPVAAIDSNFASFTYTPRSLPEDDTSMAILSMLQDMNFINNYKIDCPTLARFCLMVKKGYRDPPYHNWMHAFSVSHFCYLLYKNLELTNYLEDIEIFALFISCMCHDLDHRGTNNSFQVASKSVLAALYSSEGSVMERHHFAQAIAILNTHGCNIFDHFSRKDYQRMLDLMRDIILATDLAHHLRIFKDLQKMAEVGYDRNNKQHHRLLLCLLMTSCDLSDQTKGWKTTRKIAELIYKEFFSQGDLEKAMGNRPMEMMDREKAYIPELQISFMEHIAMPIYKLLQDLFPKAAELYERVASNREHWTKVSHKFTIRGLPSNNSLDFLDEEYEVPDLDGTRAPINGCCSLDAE

## Cc1nc(-c2cnn(C)c2-c2ccc(C(F)(F)F)cc2)c2c(N3CC(F)C3)ncnn12
  IC50: 0.633 nM
